# Reference: BindingDB's records for doi:10.1021/jm00166a002 (Berlex Laboratories, 1990)
# pIC50: −log10 of the molar value.
# Biological target: Beta-1 adrenergic receptor (Canis familiaris)
# Assay: In vitro Beta-1 adrenergic receptor affinity in partially purified membrane fractions from canine cardiac tissue using […] (4.5 nM)
row,pIC50,SMILES
1,4.74,Cc1nccn1-c1ccc(OCCNCC(O)COc2ccc(N(C)S(C)(=O)=O)cc2)cc1 (configuration not stated)
2,4.68,CN(c1ccc(OCC(O)CNCCOc2ccc(-n3ccnc3)cc2)cc1)S(C)(=O)=O (configuration not stated)
